According to patent publication US9914698B2, “Stearoyl amino acid salt and preparation method and application thereof” (Shanghai Jiaotong University School of Medicine, priority 2014, dated 2018):
Read-outs that look alike come from different tables or passages of the source.

Legend:
Kunming mice = assay: Acute toxicity test; conditions: mouse, in vivo
Excerpt: After oral administration of NsTyr-2K, the mice were weighed. […] However, their weight followed up rapidly as food intake recovered.
After 15-day administration of NsTyr-2K, the mouse organs (brain, heart, lung, liver and kidney) were studied to see if there was any change.
This means that mouse brain tissues had not been severely damaged under such dose, and that NsTyr-2K had high safety. Even so, it is necessary to conduct further long-term safety assessment of any possible side effect of NsTyr-2K on liver and hear in the following medicinal research and to precisely determine the amount of administration required.

[1] = Equilibrium solubility, shake-flask method; format: physicochemical; conditions: 37 °C, thermodynamic from solid, read-out: Equilibrium solubility in buffer solution
Experimental: The shake-flask method was used to test the equilibrium solubility of NsTyr, NsTyr-2K, NsTyr-2Na in water at 37° C. […] The apparent lipid-water distribution coefficient log p of NsTyr-2K, NsTyr-2Na was respectively 1.512 and 1.477. Under different pHs, see Table 1 for the equilibrium solubility test data of NsTyr-2K, NsTyr-2Na; and see Table 2 for the apparent lipid-water distribution coefficient of NsTyr-2K and NsTyr-2Na.

[2] = tested on: gerbil model with global ischemia reperfusion injury; assay: Neurobehavioral scores of acute cerebral ischemia reperfusion model; format: in vivo; conditions: ischemic model group 3.1+/−0.32
Excerpt: Taking N-stearoyl amino acid potassium NsTyr-2K as an example, a gerbil model with global ischemia reperfusion injury was used to assess the protective role of NsTyr-2K against neurobehavioral disorder caused by cerebral ischemia-reperfusion injury by examining the changing behavioral indexes such as spatial, learning and cognitive functions in the perspective of overall animals during passive dark avoidance test and Morris water maze test.

CCCCCCCCCCCCCCCCCC(=O)N[C@@H](Cc1ccc(O)cc1)C(=O)[O-].[K+] [NsTyr-2K, N-stearoyl tyrosine potassium salt]
behavioral abnormality (Kunming mice): no evidence of behavioral abnormality except loss of appetite and weight | organ coefficient (Kunming mice): exerted certain influence upon mouse brain, heart and liver coefficients | solubility thermodynamic ([1]; aqueous buffer, pH 2.0): 49.3 µg/mL | solubility thermodynamic ([1]; aqueous buffer, pH 3.0): 58.5 µg/mL | solubility thermodynamic ([1]; aqueous buffer, pH 4.0): 188 µg/mL | solubility thermodynamic ([1]; aqueous buffer, pH 5.0): 221 µg/mL | solubility thermodynamic ([1]; aqueous buffer, pH 6.0): 243 µg/mL | solubility thermodynamic ([1]; aqueous buffer, pH 7.0): 251 µg/mL | solubility thermodynamic ([1]; aqueous buffer, pH 8.0): 286 µg/mL | solubility thermodynamic ([1]; aqueous buffer, pH 9.0): 370 µg/mL | solubility thermodynamic ([1]; pH 7.4, aqueous buffer): 270 µg/mL | neurobehavioral score ([2]; 15 mg/kg): 1.76+/−0.48 | neurobehavioral score ([2]; 30 mg/kg): 1.25+/−0.31
